System: MV-4-11 cells
Assay: Gene expression microarray analysis (Affymetrix PrimeView) and GSEA
Type: cell-based, human
Set-up: RFU PODN (11730768_x_at) / Fold change /veh PODN (11730768_x_at) / RFU LINC00158 (11744669_a_at) / Fold change /veh LINC00158 (11744669_a_at) / RFU DUSP10 (11751237_a_at) / Fold change /veh DUSP10 (11751237_a_at) / RFU ID3 (11757404_x_at) / Fold change /veh ID3 (11757404_x_at) / RFU PLEKHG5 (11737974_s_at) / Fold change /veh PLEKHG5 (11737974_s_at) / RFU LRRC4B (11730491_at) / Fold change /veh LRRC4B (11730491_at) / RFU GIMAP4 (11747438_a_at) / Fold change /veh GIMAP4 (11747438_a_at) / RFU KRT8 (11758183_x_at) / Fold change /veh KRT8 (11758183_x_at) / RFU CNN1 (11734310_a_at) / Fold change /veh CNN1 (11734310_a_at) / RFU VPS37D (11726825_at) / Fold change /veh VPS37D (11726825_at) / RFU C10orf10 (11716522_x_at) / Fold change /veh C10orf10 (11716522_x_at) / RFU KIR2DL2 /// KIR2DL4 /// KIR2DL5A /// KIR2DL5B /// KIR2DS1 /// KIR2DS2 /// KIR2DS3 /// KIR2DS4 /// KIR3DL3 /// KIR3DL3 /// KIR3DS1 (11738374_at) / Fold change /veh KIR2DL2 /// KIR2DL4 /// KIR2DL5A /// KIR2DL5B /// KIR2DS1 /// KIR2DS2 /// KIR2DS3 /// KIR2DS4 /// KIR3DL3 /// KIR3DL3 /// KIR3DS1 (11738374_at) / RFU C1QL1 (11718748_at) / Fold change /veh C1QL1 (11718748_at) / RFU TMPRSS4 (11747572_a_at) / Fold change /veh TMPRSS4 (11747572_a_at) / RFU HAMP (11756126_x_at) / Fold change /veh HAMP (11756126_x_at) / RFU RNFT2 (11725882_a_at) / Fold change /veh RNFT2 (11725882_a_at) / RFU NR4A2 (11747474_a_at) / Fold change /veh NR4A2 (11747474_a_at) / RFU ABCC12 (11746883_a_at) / Fold change /veh ABCC12 (11746883_a_at) / RFU TMEM136 (11760407_x_at) / Fold change /veh TMEM136 (11760407_x_at) / RFU CLDN22 /// WWC2 (11732394_at) / Fold change /veh CLDN22 /// WWC2 (11732394_at) / RFU HLA-DPB1 (11760878_x_at) / Fold change /veh HLA-DPB1 (11760878_x_at) / RFU SPINT1 (11716480_a_at) / Fold change /veh SPINT1 (11716480_a_at) / RFU GAP43 (11754022_s_at) / Fold change /veh GAP43 (11754022_s_at) / RFU A4GNT (11735810_at) / Fold change /veh A4GNT (11735810_at) / RFU PRB3 (11715151_x_at) / Fold change /veh PRB3 (11715151_x_at) / RFU TUBB4B (11761932_at) / Fold change /veh TUBB4B (11761932_at) / RFU CAPN14 (11732068_a_at) / Fold change /veh CAPN14 (11732068_a_at) / RFU TMCC2 (11721928_a_at) / Fold change /veh TMCC2 (11721928_a_at) / RFU IRGQ (11745062_a_at) / Fold change /veh IRGQ (11745062_a_at) / RFU FAM174B (11720279_a_at) / Fold change /veh FAM174B (11720279_a_at) / RFU TMPRSS4 (11748680_a_at) / Fold change /veh TMPRSS4 (11748680_a_at) / RFU FAM212B (11763350_a_at) / Fold change /veh FAM212B (11763350_a_at) / RFU PLEKHG5 (11743358_a_at) / Fold change /veh PLEKHG5 (11743358_a_at) / RFU ZSCAN30 (11745921_a_at) / Fold change /veh ZSCAN30 (11745921_a_at) / RFU CMKLR1 (11741424_a_at) / Fold change /veh CMKLR1 (11741424_a_at) / RFU LOC101060620 /// MAPK8IP1 (11723275_at) / Fold change /veh LOC101060620 /// MAPK8IP1 (11723275_at) / RFU SPTSSB (11747773_x_at) / Fold change /veh SPTSSB (11747773_x_at) / RFU PRSS12 (11739890_at) / Fold change /veh PRSS12 (11739890_at) / RFU BIN1 (11741810_x_at) / Fold change /veh BIN1 (11741810_x_at) / RFU WNT11 (11732464_a_at) / Fold change /veh WNT11 (11732464_a_at) / RFU C10orf10 (11716521_a_at) / Fold change /veh C10orf10 (11716521_a_at) / RFU C5orf56 (11738089_at) / Fold change /veh C5orf56 (11738089_at) / RFU CYB561 (11721691_x_at) / Fold change /veh CYB561 (11721691_x_at) / RFU ANKRD19P (11752326_a_at) / Fold change /veh ANKRD19P (11752326_a_at) / RFU OR2T12 /// OR2T33 /// OR2T8 (11738714_s_at) / Fold change /veh OR2T12 /// OR2T33 /// OR2T8 (11738714_s_at) / RFU VCAN (11748164_a_at) / Fold change /veh VCAN (11748164_a_at) / RFU JSRP1 (11732532_at) / Fold change /veh JSRP1 (11732532_at) / RFU KRTAP10-11 (11738290_x_at) / Fold change /veh KRTAP10-11 (11738290_x_at) / RFU MYO3A (11730013_a_at) / Fold change /veh MYO3A (11730013_a_at) / RFU EBF3 (11725865_a_at) / Fold change /veh EBF3 (11725865_a_at) / RFU CAMK2N1 (11719241_x_at) / Fold change /veh CAMK2N1 (11719241_x_at) / RFU C5orf56 (11738088_a_at) / Fold change /veh C5orf56 (11738088_a_at) / RFU OLFML3 (11715873_a_at) / Fold change /veh OLFML3 (11715873_a_at) / RFU LOC100653217 /// NTM (11731650_a_at) / Fold change /veh LOC100653217 /// NTM (11731650_a_at) / RFU MAPK11 (11762145_a_at) / Fold change /veh MAPK11 (11762145_a_at) / RFU FIZ1 (11724087_x_at) / Fold change /veh FIZ1 (11724087_x_at) / RFU OASL (11726364_x_at) / Fold change /veh OASL (11726364_x_at) / RFU SOX15 (11748057_x_at) / Fold change /veh SOX15 (11748057_x_at) / RFU CD79A (11719716_a_at) / Fold change /veh CD79A (11719716_a_at) / RFU HIST1H1D (11736915_at) / Fold change /veh HIST1H1D (11736915_at) / RFU CASKIN2 (11723855_a_at) / Fold change /veh CASKIN2 (11723855_a_at) / RFU LOC730098 (11760151_x_at) / Fold change /veh LOC730098 (11760151_x_at) / RFU OR4N2 (11742367_at) / Fold change /veh OR4N2 (11742367_at) / RFU PRRT2 (11749266_a_at) / Fold change /veh PRRT2 (11749266_a_at) / RFU SNX32 (11753110_a_at) / Fold change /veh SNX32 (11753110_a_at) / RFU CDHR5 (11726645_a_at) / Fold change /veh CDHR5 (11726645_a_at) / RFU RCAN1 (11760418_a_at) / Fold change /veh RCAN1 (11760418_a_at) / RFU FAM167A (11723789_a_at) / Fold change /veh FAM167A (11723789_a_at) / RFU FAM26E (11764081_at) / Fold change /veh FAM26E (11764081_at) / RFU ISYNA1 (11749810_s_at) / Fold change /veh ISYNA1 (11749810_s_at) / RFU ACY1 (11761880_at) / Fold change /veh ACY1 (11761880_at) / RFU 11764098_at / Fold change /veh 11764098_at / RFU SAMD14 (11745864_x_at) / Fold change /veh SAMD14 (11745864_x_at) / RFU NPB (11741838_a_at) / Fold change /veh NPB (11741838_a_at) / RFU TMPRSS6 (11731388_a_at) / Fold change /veh TMPRSS6 (11731388_a_at) / RFU KRTAP10-2 (11738614_at) / Fold change /veh KRTAP10-2 (11738614_at) / RFU ARHGAP8 /// PRR5-ARHGAP8 (11727945_x_at) / Fold change /veh ARHGAP8 /// PRR5-ARHGAP8 (11727945_x_at) / RFU KRTAP5-7 /// NADSYN1 (11734609_at) / Fold change /veh KRTAP5-7 /// NADSYN1 (11734609_at) / RFU RASL12 (11751679_a_at) / Fold change /veh RASL12 (11751679_a_at) / RFU CDKN2B (11736163_a_at) / Fold change /veh CDKN2B (11736163_a_at) / RFU PRF1 (11729649_at) / Fold change /veh PRF1 (11729649_at) / RFU, ZNF638 /// ZNF638-IT1 / Fold change vs veh, ZNF638 /// ZNF638-IT1 / RFU, PANK3 / Fold change vs veh, PANK3 / RFU, SH3YL1 / Fold change vs veh, SH3YL1 / RFU, ZEB2 / Fold change vs veh, ZEB2 / RFU, NRIP1 / Fold change vs veh, NRIP1 / RFU, PTTG1IP / Fold change vs veh, PTTG1IP / RFU, CAPN2 / Fold change vs veh, CAPN2 / RFU, MED14 / Fold change vs veh, MED14 / RFU, SNORA58 / Fold change vs veh, SNORA58 / RFU, C1orf63 / Fold change vs veh, C1orf63 / RFU, LRRFIP1 / Fold change vs veh, LRRFIP1 / RFU, NDUFAF7 / Fold change vs veh, NDUFAF7 / RFU, SLC12A2 / Fold change vs veh, SLC12A2 / RFU, IBTK / Fold change vs veh, IBTK / RFU, ESF1 / Fold change vs veh, ESF1 / Fold change vs veh, TMEM50B / RFU, TAOK1 / Fold change vs veh, TAOK1 / RFU, ACBD3 / Fold change vs veh, ACBD3 / RFU, TMA16 / Fold change vs veh, TMA16 / RFU, RWDD3 / Fold change vs veh, RWDD3 / RFU, BCAT1 / Fold change vs veh, BCAT1 / RFU, EDEM3 / Fold change vs veh, EDEM3 / RFU, TMEM33 / Fold change vs veh, TMEM33 / RFU, WDR75 / Fold change vs veh, WDR75 / RFU, AHCTF1 / Fold change vs veh, AHCTF1 / RFU, TFRC / Fold change vs veh, TFRC / RFU, ZDHHC17 / Fold change vs veh, ZDHHC17 / RFU, NOM1 / Fold change vs veh, NOM1 / RFU, ARL8B / Fold change vs veh, ARL8B / RFU, ZBTB11 / Fold change vs veh, ZBTB11 / RFU, TAMM41 / Fold change vs veh, TAMM41 / RFU, KIAA1704 /// LOC100996395 / Fold change vs veh, KIAA1704 /// LOC100996395 / RFU, ING1 / Fold change vs veh, ING1 / RFU, TRMT61B / Fold change vs veh, TRMT61B / RFU, FUBP3 / Fold change vs veh, FUBP3 / RFU, TP53 / Fold change vs veh, TP53 / RFU, TNKS2 / Fold change vs veh, TNKS2 / RFU, ZFP14 / Fold change vs veh, ZFP14 / RFU, ACTR2 / Fold change vs veh, ACTR2 / RFU, PPP3R1 / Fold change vs veh, PPP3R1 / RFU, PIK3R1 / Fold change vs veh, PIK3R1 / RFU, HNRNPA1 / Fold change vs veh, HNRNPA1 / RFU, RNF170 / Fold change vs veh, RNF170 / RFU, ZNF28 / Fold change vs veh, ZNF28 / RFU, RNGTT / Fold change vs veh, RNGTT / RFU, OGT / Fold change vs veh, OGT / RFU, BRD1 / Fold change vs veh, BRD1 / RFU, MARS / Fold change vs veh, MARS / RFU, ZNF655 / Fold change vs veh, ZNF655 / RFU, FAHD1 / Fold change vs veh, FAHD1 / RFU, BDP1 / Fold change vs veh, BDP1 / RFU, LRRCC1 / Fold change vs veh, LRRCC1 / RFU, ARID1A / Fold change vs veh, ARID1A / RFU, ZNF146 / Fold change vs veh, ZNF146 / RFU, ZNF330 / Fold change vs veh, ZNF330 / RFU, GPN3 / Fold change vs veh, GPN3 / RFU, C9orf123 / Fold change vs veh, C9orf123 / RFU, N4BP2L2 / Fold change vs veh, N4BP2L2 / RFU, ARFIP1 / Fold change vs veh, ARFIP1 / RFU, FAM179B / Fold change vs veh, FAM179B / RFU, BCL10 / Fold change vs veh, BCL10 / RFU, UHRF1BP1L / Fold change vs veh, UHRF1BP1L / RFU, BET1 / Fold change vs veh, BET1 / RFU, CNOT2 / Fold change vs veh, CNOT2 / RFU, ZNF268 / Fold change vs veh, ZNF268 / Fold change vs veh, ZNF507 / RFU, DGCR2 / Fold change vs veh, DGCR2 / RFU, WDSUB1 / Fold change vs veh, WDSUB1 / Fold change vs veh, HSP90B1 /// MIR3652 / RFU, ADSS / Fold change vs veh, ADSS / RFU, GK / Fold change vs veh, GK / RFU, ZNF148 / Fold change vs veh, ZNF148 / RFU, TAF9 / Fold change vs veh, TAF9 / RFU, SLC1A5 / Fold change vs veh, SLC1A5 / RFU, SLMO2 / Fold change vs veh, SLMO2 / RFU, ABCC4 / Fold change vs veh, ABCC4 / RFU, LOC101060439 /// RAP1B / Fold change vs veh, LOC101060439 /// RAP1B / RFU, RFX7 / Fold change vs veh, RFX7 / RFU, GTPBP10 / Fold change vs veh, GTPBP10 / RFU, CNEP1R1 / Fold change vs veh, CNEP1R1 / RFU, BIVM-ERCC5 /// ERCC5 / Fold change vs veh, BIVM-ERCC5 /// ERCC5 / RFU, ILF3 / Fold change vs veh, ILF3 / RFU 11762660_at / Fold change /veh 11762660_at / RFU VCAN (11757783_s_at) / Fold change /veh VCAN (11757783_s_at) / RFU DDX43 (11728927_at) / Fold change /veh DDX43 (11728927_at) / RFU KRT8 (11758188_x_at) / Fold change /veh KRT8 (11758188_x_at) / RFU NKD1 (11759106_at) / Fold change /veh NKD1 (11759106_at) / RFU SRD5A1 (11742802_a_at) / Fold change /veh SRD5A1 (11742802_a_at) / RFU TPSAB1 /// TPSB2 (11721975_s_at) / Fold change /veh TPSAB1 /// TPSB2 (11721975_s_at) / RFU GSTM3 (11746129_a_at) / Fold change /veh GSTM3 (11746129_a_at) / RFU IL23R (11737362_x_at) / Fold change /veh IL23R (11737362_x_at) / RFU TMEM51 (11727254_a_at) / Fold change /veh TMEM51 (11727254_a_at) / RFU PIWIL2 (11732686_x_at) / Fold change /veh PIWIL2 (11732686_x_at) / RFU ORM1 (11744905_x_at) / Fold change /veh ORM1 (11744905_x_at) / RFU CCDC152 (11743942_at) / Fold change /veh CCDC152 (11743942_at) / RFU ECM1 (11717891_a_at) / Fold change /veh ECM1 (11717891_a_at) / RFU IL23R (11748794_a_at) / Fold change /veh IL23R (11748794_a_at) / RFU TNFAIP8L3 (11732012_x_at) / Fold change /veh TNFAIP8L3 (11732012_x_at) / RFU MBOAT4 (11741988_at) / Fold change /veh MBOAT4 (11741988_at) / RFU 11764193_at / Fold change /veh 11764193_at / RFU TMEM53 (11763286_at) / Fold change /veh TMEM53 (11763286_at) / RFU MAGEB2 (11727129_at) / Fold change /veh MAGEB2 (11727129_at) / RFU TMEM200A (11744735_a_at) / Fold change /veh TMEM200A (11744735_a_at) / RFU CCDC152 (11751479_a_at) / Fold change /veh CCDC152 (11751479_a_at) / RFU FAM211A (11726209_a_at) / Fold change /veh FAM211A (11726209_a_at) / RFU RGS16 (11746705_a_at) / Fold change /veh RGS16 (11746705_a_at) / RFU VCAN (11755009_s_at) / Fold change /veh VCAN (11755009_s_at) / RFU RHOB (11743442_s_at) / Fold change /veh RHOB (11743442_s_at) / RFU RGS16 (11720943_a_at) / Fold change /veh RGS16 (11720943_a_at) / RFU RGS16 (11720944_at) / Fold change /veh RGS16 (11720944_at) / RFU, VPS4B / Fold change vs veh, VPS4B / RFU, CREB1 / Fold change vs veh, CREB1 / RFU, DNAJC13 / Fold change vs veh, DNAJC13 / RFU, GNAQ / Fold change vs veh, GNAQ / RFU, CDK5R1 / Fold change vs veh, CDK5R1 / RFU, ZRANB3 / Fold change vs veh, ZRANB3 / RFU, CUL4A / Fold change vs veh, CUL4A / RFU, CCNY / Fold change vs veh, CCNY / RFU, UFL1 / Fold change vs veh, UFL1 / RFU, COG3 / Fold change vs veh, COG3 / RFU, DIAPH2 / Fold change vs veh, DIAPH2 / RFU, SKA2 / Fold change vs veh, SKA2 / RFU, AFF3 / Fold change vs veh, AFF3 / RFU, LMF1 / Fold change vs veh, LMF1 / RFU, IPO11 / Fold change vs veh, IPO11 / RFU, DFFB / Fold change vs veh, DFFB / RFU, FOXP1 / Fold change vs veh, FOXP1 / RFU, CARD8 / Fold change vs veh, CARD8 / RFU, STRN3 / Fold change vs veh, STRN3 / RFU, ADK / Fold change vs veh, ADK / RFU, RASSF2 / Fold change vs veh, RASSF2 / RFU, WIPF1 / Fold change vs veh, WIPF1 / RFU, LARP1B / Fold change vs veh, LARP1B / RFU, RASA1 / Fold change vs veh, RASA1 / RFU, RB1 / Fold change vs veh, RB1 / RFU, PPFIA1 / Fold change vs veh, PPFIA1 / RFU, MAT2A / Fold change vs veh, MAT2A / RFU, CCT5 / Fold change vs veh, CCT5 / RFU, WDR92 / Fold change vs veh, WDR92 / RFU, CUX1 / Fold change vs veh, CUX1 / RFU, TTC7A / Fold change vs veh, TTC7A / RFU, TMEM135 / Fold change vs veh, TMEM135 / RFU, DEPTOR / Fold change vs veh, DEPTOR / RFU, CPM / Fold change vs veh, CPM / RFU, DNAJB6 / Fold change vs veh, DNAJB6 / RFU, CACNA2D3 / Fold change vs veh, CACNA2D3 / RFU, DTX4 / Fold change vs veh, DTX4 / RFU, TFCP2 / Fold change vs veh, TFCP2 / RFU, GMCL1 /// GMCL1P1 / Fold change vs veh, GMCL1 /// GMCL1P1 / RFU, AEBP2 / Fold change vs veh, AEBP2 / RFU, SNHG1 /// SNORD22 /// SNORD25 /// SNORD26 /// SNORD27 /// SNORD28 /// SNORD29 /// SNORD31 / Fold change vs veh, SNHG1 /// SNORD22 /// SNORD25 /// SNORD26 /// SNORD27 /// SNORD28 /// SNORD29 /// SNORD31 / Fold change (Aza/veh), C12orf56 (ProbeSet 11735607_a_at) / Fold change (ACY-1035/veh), C12orf56 (ProbeSet 11735607_a_at) / Fold change (Aza/veh), FGFR1OP (ProbeSet 11751329_s_at) / Fold change (ACY-1035/veh), FGFR1OP (ProbeSet 11751329_s_at) / Fold change (Aza/veh), VPS36 (ProbeSet 11739960_a_at) / Fold change (ACY-1035/veh), VPS36 (ProbeSet 11739960_a_at) / RFU SYPL1 (11715823_x_at) / Fold change /veh SYPL1 (11715823_x_at) / RFU IGFBP7 (11715501_s_at) / Fold change /veh IGFBP7 (11715501_s_at) / RFU REEP3 (11722064_at) / Fold change /veh REEP3 (11722064_at) / RFU IGLL1 (11728026_x_at) / Fold change /veh IGLL1 (11728026_x_at): dose or concentration left out as unconfirmed
Details: ProbeSet 11733176_x_at; LIST B

In the case of `Nc1ccc(-c2cccs2)cc1NC(=O)c1ccc2c(c1)cc(C1CC1)n2CCN1CCOCC1` [ACY-1035], the “Fold change vs veh, ZNF507” value is reported as 0.90.
